According to patent US20250171418A1, “PARP1 INHIBITORS AND USES THEREOF” (XinThera, Inc., priority 2022, published 2025):

Assays:
[1] = system: DLD-1 BRCA2(−/−); experiment: Cell growth inhibition assay (CellTiter-Glo cell viability); assay type: cell-based; details: DLD-1 BRCA2(−/−) cells, 7 days, CellTiter Glo 2.0
Method: (§1) Cell proliferation was measured through the cell viability assay using DLD-1 BRCA2(−/−) and parental isogenic pair and MDA-MB-436 (mutated BRCA1) cell lines. The CellTiter-Glo (CTG) based cell viability assay is designed to determine the number of viable cells in the culture because of compound effect, by quantifying ATP, which indicates the presence of metabolically active cells.
(§2) DLD-1 BRCA2(−/−) and parental isogenic pair were cultured in RPMI 1640 supplemented with 10% fetal bovine serum (FBS), and MDA-MB-436 cells were cultured in DMEM supplemented with 10% FBS. Both were cultured at 37° C. with […]. Invention compounds were distributed to the 384 well plate (Corning, 3764) using Echo acoustic liquid handler to form a 1:3 serially diluted final concentration with top dose of 10 or 30 μM.

[2] = system: MDA-MB-436 (mutated BRCA1) cell lines; experiment: as above; assay type: cell-based; details: MDA-MB-436 cells, 7 days, CellTiter Glo 2.0
Method: as §1, §2

[3] = target: PARP1 (Homo sapiens, UniProt P09874); experiment: biochemical
PARP1, sequence (P09874 whole entry): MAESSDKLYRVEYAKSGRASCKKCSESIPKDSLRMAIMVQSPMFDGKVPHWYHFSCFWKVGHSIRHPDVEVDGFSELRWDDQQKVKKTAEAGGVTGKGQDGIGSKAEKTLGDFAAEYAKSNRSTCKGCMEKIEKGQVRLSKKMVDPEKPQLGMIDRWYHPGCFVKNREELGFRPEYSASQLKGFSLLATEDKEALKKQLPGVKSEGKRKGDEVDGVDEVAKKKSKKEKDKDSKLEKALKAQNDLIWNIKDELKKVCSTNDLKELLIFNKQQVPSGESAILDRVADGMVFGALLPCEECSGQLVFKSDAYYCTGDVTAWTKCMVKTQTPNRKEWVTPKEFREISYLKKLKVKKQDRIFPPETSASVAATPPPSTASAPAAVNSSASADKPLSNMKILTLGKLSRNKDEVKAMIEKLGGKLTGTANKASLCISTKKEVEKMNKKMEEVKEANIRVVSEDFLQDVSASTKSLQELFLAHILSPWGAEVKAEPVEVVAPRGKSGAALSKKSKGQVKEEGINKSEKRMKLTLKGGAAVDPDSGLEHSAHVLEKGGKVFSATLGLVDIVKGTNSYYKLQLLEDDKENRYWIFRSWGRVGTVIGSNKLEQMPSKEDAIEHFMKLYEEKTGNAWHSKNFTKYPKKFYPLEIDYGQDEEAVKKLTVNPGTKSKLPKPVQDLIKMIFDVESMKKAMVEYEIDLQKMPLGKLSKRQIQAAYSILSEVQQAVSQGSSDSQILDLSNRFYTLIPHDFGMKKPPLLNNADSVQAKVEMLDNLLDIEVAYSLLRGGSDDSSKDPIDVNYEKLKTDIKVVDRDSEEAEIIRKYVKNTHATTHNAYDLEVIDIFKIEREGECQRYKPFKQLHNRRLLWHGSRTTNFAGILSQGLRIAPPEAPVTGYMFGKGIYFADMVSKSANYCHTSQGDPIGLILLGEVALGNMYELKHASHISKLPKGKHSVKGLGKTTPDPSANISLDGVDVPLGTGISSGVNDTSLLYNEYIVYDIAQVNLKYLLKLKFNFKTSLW
Method: The assay was performed utilizing the following method:
Compounds were dissolved in DMSO an Echo550 liquid handler was utilized to make serial dilations in the desired concentration range in Optiplate-384F plates. 100% DMSO was used for the high (with protein) and low (without protein) control samples. 20 nL of compound or DMSO alone was added to individual assay plate wells.
PARP1 and PARP2 protein were expressed, purified, and diluted in assay buffer containing 50 mM Tris pH 8.0, 0.001% Triton X-100, 10 mM MgCl2, 150 mM NaCl to a final concentration of 20 nM. The PARPi-FL was then added at a final concentration of 3 nM.
The assay plate was centrifuged at 1000 rpm for 1 min and incubated for 4 h at room temperature.
The fluorescent polarization was read using an Envision plate reader using the following settings: • Excitation filter—FITC FP 480-Ex Slot 3 • Emission filter—FITC FP P-pol 535-Em Slot 4 • 2nd Emission filter—FITC FP S-pol 535-Em Slot 3 • Mirror module—FITC FP Dual Enh-Slot 1
XLFit (equation 201) is used to calculate a reported IC50 for each compound.

[4] = target: T1, MDR1 (Homo sapiens, UniProt P08183); experiment: In vitro human transporter efflux, MDCKII cells expressing MDR1; assay type: in vitro ADME
T1 construct: expressed in transfected cells; host or cells: MDCKII (Madin-Darby canine kidney) cells
T1 sequence (P08183 whole entry): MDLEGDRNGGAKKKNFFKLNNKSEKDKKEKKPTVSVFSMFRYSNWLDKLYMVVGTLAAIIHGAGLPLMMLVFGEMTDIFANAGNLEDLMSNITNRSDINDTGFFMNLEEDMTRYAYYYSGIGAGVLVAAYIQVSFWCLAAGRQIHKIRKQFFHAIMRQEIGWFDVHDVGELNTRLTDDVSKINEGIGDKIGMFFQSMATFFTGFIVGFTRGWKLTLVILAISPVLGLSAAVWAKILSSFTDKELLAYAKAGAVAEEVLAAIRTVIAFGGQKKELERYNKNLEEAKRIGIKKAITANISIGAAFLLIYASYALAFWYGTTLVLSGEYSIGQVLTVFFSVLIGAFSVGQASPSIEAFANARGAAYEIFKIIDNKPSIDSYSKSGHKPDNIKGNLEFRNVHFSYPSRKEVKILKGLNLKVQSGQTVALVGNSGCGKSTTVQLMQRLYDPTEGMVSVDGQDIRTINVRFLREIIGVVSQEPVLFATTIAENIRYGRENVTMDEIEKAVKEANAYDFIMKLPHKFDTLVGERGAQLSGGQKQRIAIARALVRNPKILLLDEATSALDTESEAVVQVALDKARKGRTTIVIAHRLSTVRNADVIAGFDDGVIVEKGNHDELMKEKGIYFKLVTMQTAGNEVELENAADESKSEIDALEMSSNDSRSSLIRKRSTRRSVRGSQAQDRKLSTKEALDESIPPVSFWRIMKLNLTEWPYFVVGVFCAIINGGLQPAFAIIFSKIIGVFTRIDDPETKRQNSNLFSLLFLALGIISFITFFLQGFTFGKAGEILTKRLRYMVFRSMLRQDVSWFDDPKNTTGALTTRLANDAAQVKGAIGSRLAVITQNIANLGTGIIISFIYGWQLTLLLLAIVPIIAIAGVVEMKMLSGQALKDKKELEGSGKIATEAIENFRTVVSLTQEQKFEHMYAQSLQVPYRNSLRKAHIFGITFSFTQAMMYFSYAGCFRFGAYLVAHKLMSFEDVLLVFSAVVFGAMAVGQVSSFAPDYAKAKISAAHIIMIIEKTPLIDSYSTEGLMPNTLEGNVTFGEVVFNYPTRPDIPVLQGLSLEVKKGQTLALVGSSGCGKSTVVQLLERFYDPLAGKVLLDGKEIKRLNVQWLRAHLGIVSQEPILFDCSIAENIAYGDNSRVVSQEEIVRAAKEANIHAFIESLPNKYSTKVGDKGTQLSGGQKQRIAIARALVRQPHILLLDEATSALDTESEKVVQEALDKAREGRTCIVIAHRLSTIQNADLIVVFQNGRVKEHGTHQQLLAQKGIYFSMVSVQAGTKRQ
Method: (§3) Madin-Darby canine kidney (MDCKII) cells expressing either MDR1 or BCRP were seeded onto Corning HTS Transwell® 96-well polycarbonate permeable (0.4 μm pore) supports at a density of 545,000 cells/cm2. Cells were incubated for 4-8 days prior to assay, and monolayer integrity was assessed by measuring transepithelial electrical resistance (TEER). […] The final organic solvent concentration was 0.5% (v/v). Bidirectional (apical-to-basolateral and basolateral-to-apical) flux of the test and reference compounds was determined over a 2-hour incubation at 37° C. and […] with a relative humidity of 95%. At the end of the incubation, samples from the apical and basolateral side were taken and then precipitated with acetonitrile containing internal standard. After centrifugation at 3200×g, supernatants were diluted 1:1 (v/v) with water and subjected to analysis via HPLC-MS/MS.
(§4) The apparent permeability (Papp, units of x 10-6 cm/s) was calculated using the following equation: […]
(§5) Where dQ/dt was the rate of drug transport (pmol/s), A was the surface area of the membrane (0.143 cm^2), and DO was the initial donor concentration (nM or pmol/cm3).
(§6) Efflux ratio=Papp(B→A)/Papp(A→B)
(§7) Where Papp(B→A) is the apparent permeability in the basolateral-to-apical direction, and Papp(A→B) is the apparent permeability in the apical-to-basolateral direction.

[5] = target: T2, BCRP (Homo sapiens, UniProt Q9UNQ0); experiment: In vitro human transporter efflux, MDCKII cells expressing BCRP; assay type: in vitro ADME
T2 construct: expressed in transfected cells; host or cells: MDCKII (Madin-Darby canine kidney) cells
T2 sequence (Q9UNQ0 1-655): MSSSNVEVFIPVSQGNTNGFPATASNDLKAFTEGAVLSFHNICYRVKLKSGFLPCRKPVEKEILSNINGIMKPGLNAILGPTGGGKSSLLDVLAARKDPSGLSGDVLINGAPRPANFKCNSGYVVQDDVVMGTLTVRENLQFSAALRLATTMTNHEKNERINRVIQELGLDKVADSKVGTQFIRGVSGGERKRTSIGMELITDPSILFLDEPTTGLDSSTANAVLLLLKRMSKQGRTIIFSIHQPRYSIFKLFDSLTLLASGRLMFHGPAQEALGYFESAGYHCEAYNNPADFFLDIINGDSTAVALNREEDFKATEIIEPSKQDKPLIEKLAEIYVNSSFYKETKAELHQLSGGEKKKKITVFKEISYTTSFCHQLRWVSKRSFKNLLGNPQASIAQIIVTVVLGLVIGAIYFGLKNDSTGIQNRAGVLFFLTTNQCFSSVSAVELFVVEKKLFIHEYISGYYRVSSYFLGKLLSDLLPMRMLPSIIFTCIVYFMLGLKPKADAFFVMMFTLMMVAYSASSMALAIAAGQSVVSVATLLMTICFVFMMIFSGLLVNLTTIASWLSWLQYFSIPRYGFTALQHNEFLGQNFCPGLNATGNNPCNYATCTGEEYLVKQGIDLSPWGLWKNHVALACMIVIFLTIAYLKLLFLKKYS
Method: as §3, §4, §5, §6, §7

SMILES	EC50 ([1]; Homo sapiens, DLD-1, 168 h)	EC50 ([2]; Homo sapiens, 168 h)	IC50 [3]	further results
COCCNC(=O)c1ccc(N2CCN(Cc3ccc4nc(C)c(=O)[nH]c4c3F)CC2)c(F)n1 [Example 10]	14 nM	8.1 nM	–	–
Cc1nc2ccc(CN3CCN(c4ccc(C(=O)N[C@H]5CC5(F)F)nc4F)CC3)c(F)c2[nH]c1=O (single isomer, unassigned) [Example 20]	5.7 nM	3.1 nM	–	–
Cc1nc2ccc(CN3CCN(c4ccc(C(=O)NC5CC(F)(F)C5)nc4F)CC3)c(F)c2[nH]c1=O [Example 13]	4.4 nM	5 nM	–	–
CCc1nc2ccc(CN3CCN(c4ccc(C(=O)NCCOC)nc4F)CC3)c(F)c2[nH]c1=O [Example 12]	7.1 nM	5.3 nM	–	–
Cc1nc2ccc([C@H](C)N3CCN(c4ccc(C(=O)NC5CC5)nc4F)CC3)c(F)c2[nH]c1=O (single isomer, unassigned) [Example 24]	20 nM	7.9 nM	24 nM	–
CNC(=O)c1ccc(C2=CCN(Cc3ccc4nc(C)c(=O)[nH]c4c3F)CC2)c(F)n1 [Example 7, 2-fluoro-1′-[(5-fluoro-2-methyl-3-oxo-4H-quinoxalin-6-yl)methyl]-N-methyl-3′,6′-dihydro-2′H-[3,4′-bipyridine]-6-carboxamide]	15 nM	6.7 nM	15 nM	–
CCc1nc2ccc([C@H](C)N3CCN(c4ccc(C(=O)NC)nc4F)CC3)c(F)c2[nH]c1=O (single isomer, unassigned) [Example 17]	7.7 nM	6.8 nM	24 nM	–
Cc1nc2ccc([C@@H](C)N3CCN(c4ccc(C(=O)NC5CC5)nc4F)CC3)c(F)c2[nH]c1=O (single isomer, unassigned) [Example 25]	35 nM	12 nM	24 nM	–
CNC(=O)c1ccc(N2CCN([C@H](C)c3ccc4nc(C)c(=O)[nH]c4c3F)CC2)c(F)n1 (single isomer, unassigned) [Example 23]	18 nM	18 nM	–	–
CNC(=O)c1ccc(N2CCN([C@@H](C)c3ccc4nc(C)c(=O)[nH]c4c3F)CC2)c(F)n1 (single isomer, unassigned) [Example 22]	25 nM	14 nM	–	–
Cc1nc2ccc(CN3CCN(c4ccc(C(=O)N[C@@H]5CC5(F)F)nc4F)CC3)c(F)c2[nH]c1=O (single isomer, unassigned) [Example 21]	3.1 nM	2 nM	–	Papp A→B at 2 h, 10 μM ([4]; MDCK-MDR1, pH 7.4, read-out: MDCK-MDR1 Papp AB): 16.6 ×10⁻⁶ cm/s; Papp B→A at 2 h, 10 μM ([4]; MDCK-MDR1, pH 7.4, read-out: MDCK-MDR1 Papp BA): 16.4 ×10⁻⁶ cm/s; Papp A→B at 2 h, 10 μM ([5]; pH 7.4, read-out: BCRP Papp AB): 21.4 ×10⁻⁶ cm/s; Papp B→A at 2 h, 10 μM ([5]; pH 7.4, read-out: BCRP Papp BA): 19.4 ×10⁻⁶ cm/s
CCc1nc2ccc(C(C)N3CCN(c4ccc(C(=O)NC)nc4)CC3)c(F)c2[nH]c1=O (single isomer, unassigned) [Example 16]	–	–	–	EC50 [1]: 30 nM; EC50 [2]: 15 nM
Cc1nc2ccc(CN3CC=C(c4ccc(C(=O)NC5CC5)nc4F)CC3)c(F)c2[nH]c1=O [Example 26]	21 nM	23 nM	37 nM	–
CCc1nc2ccc([C@@H](C)N3CCN(c4ccc(C(=O)NC)nc4F)CC3)c(F)c2[nH]c1=O (single isomer, unassigned) [Example 18]	8.7 nM	4.4 nM	15 nM	–
CNC(=O)c1ccc(N2CCN(Cc3ccc4nc(C)c(=O)[nH]c4c3F)C[C@H]2C)c(F)n1 [Example 3]	17 nM	35 nM	–	–
CCc1nc2ccc(C(C)N3CCN(c4ccc(C(=O)NC)nc4)CC3)c(F)c2[nH]c1=O (single isomer, unassigned) [Example 15]	28 nM	15 nM	–	–
Cc1nc2ccc(CN3CCN(c4ccc(C(=O)NC56CC(C5)C6)nc4F)CC3)c(F)c2[nH]c1=O [Example 4]	5.2 nM	3.7 nM	18 nM	–

More lines, main results first:

EC50 ([1]; Homo sapiens, DLD-1, 168 h)	EC50 ([2]; Homo sapiens, 168 h)	IC50 [3]	SMILES	further results
970 nM	21 nM	70 nM	Cc1nc2ccc([C@H](C)N3CCN(c4ccc(C(=O)NC5CC5)nc4)CC3)c(F)c2[nH]c1=O (single isomer, unassigned) [Example 28]	–
45 nM	84 nM	90 nM	Cc1nc2ccc([C@@H](C)N3CCN(c4ccc(C(=O)NC5CC5)nc4)CC3)c(F)c2[nH]c1=O (single isomer, unassigned) [Example 29]	–
39 nM	13 nM	15 nM	Cc1nc2ccc(CN3CCN(c4ccc(C(=O)NC5CC5)nc4)CC3)c(F)c2[nH]c1=O [Example 8]	–
19 nM	7.2 nM	–	Cc1nc2ccc(CN3CCN(c4ccc(C(=O)NC5CC5)nc4F)[C@H]4C[C@H]43)c(F)c2[nH]c1=O (single isomer, unassigned) [Example 9]	–
23 nM	11 nM	16 nM	CNC(=O)c1ccc(C2CCN(Cc3ccc4nc(C)c(=O)[nH]c4c3F)CC2)c(F)n1 [Example 5, 6-fluoro-5-{1-[(5-fluoro-2-methyl-3-oxo-4H-quinoxalin-6-yl)methyl]piperidin-4-yl}-N-methylpyridine-2-carboxamide]	–
3.5 nM	7 nM	–	CNC(=O)c1ccc(N2CCN(Cc3ccc4nc(C)c(=O)[nH]c4c3F)[C@H]3C[C@H]32)c(F)n1 (relative stereo) [Example 2, rel-6-fluoro-5-[(1R,6S)-5-[(5-fluoro-2-methyl-3-oxo-4H-quinoxalin-6-yl)methyl]-2,5-diazabicyclo[4.1.0]heptan-2-yl]-N-methylpyridine-2-carboxamide]	–
6.8 nM	3.8 nM	5.2 nM	Cc1nc2ccc(CN3CCN(c4ccc(C(=O)N[C@H]5C[C@H](F)C5)nc4F)CC3)c(F)c2[nH]c1=O [Example 11]	–
2.8 nM	2.1 nM	5.3 nM	CCc1nc2ccc(CN3CCN(c4ccc(C(=O)NC5CC5)nc4F)CC3)c(F)c2[nH]c1=O [Example 14]	–
27 nM	11 nM	–	Cc1nc2ccc(CN3CCC(c4ccc(C(=O)NC5CC5)nc4F)CC3)c(F)c2[nH]c1=O [Example 27]	–
84 nM	58 nM	14 nM	Cc1nc2ccc(CN3CCN(c4ccc(C(=O)NC5CC5)nc4)[C@H]4C[C@H]43)c(F)c2[nH]c1=O (single isomer, unassigned) [Example 6]	–
